Source: ChEMBL document CHEMBL3885881, “DrugMatrix”

Species on record: Rattus norvegicus
Assay: DrugMatrix - Regimen: Daily Repeat
Assay type: toxicity, organism-based, Sprague-Dawley
Design: regimen Daily Repeat, gender Male, age 6-8 weeks
Conditions: in vivo, po, route oral GAVAGE, vehicle 100 % WATER; for ABSOLUTE BASOPHIL / ABSOLUTE EOSINOPHIL / ABSOLUTE LYMPHOCYTE / ABSOLUTE MONOCYTE / ABSOLUTE SEGMENTED NEUTROPHIL / BASOPHIL / EOSINOPHIL / ERYTHROCYTE COUNT / HEMATOCRIT / HEMOGLOBIN / LEUKOCYTE COUNT / LYMPHOCYTE / MEAN CORPUSCULAR HEMOGLOBIN / MEAN CORPUSCULAR HEMOGLOBIN CONCENTRATION / MEAN CORPUSCULAR VOLUME / MONOCYTE / NEUTROPHIL / NUCLEATED RED BLOOD CELLS / PLATELET COUNT: tissue Blood; for ALANINE AMINOTRANSFERASE / ALBUMIN / ALKALINE PHOSPHATASE / ASPARTATE AMINOTRANSFERASE / BLOOD UREA NITROGEN / CARBON DIOXIDE / CHLORIDE / CHOLESTEROL / CREATINE PHOSPHOKINASE / CREATININE / GLUCOSE / LACTATE DEHYDROGENASE / LIPASE / PHOSPHORUS / POTASSIUM / SODIUM / TOTAL BILIRUBIN / TOTAL PROTEIN / URIC ACID: tissue Plasma
[1] = 46 mg/kg, 72 h, dose level High, time 3 day
[2] = 46 mg/kg, 120 h, dose level High, time 5 day
[3] = […], 72 h, dose 4.6 mg/Kg, dose level Low, time 3 day
[4] = […], 120 h, dose 4.6 mg/Kg, dose level Low, time 5 day

`CC(C)NNC(=O)c1ccncc1` [IPRONIAZID] was tested, and the “ABSOLUTE BASOPHIL” value [1] was 0 CELLS/uL, the “ABSOLUTE EOSINOPHIL” value [1] was 0 CELLS/uL and the “ABSOLUTE LYMPHOCYTE” value [1] was 9249.33 CELLS/uL. For the same compound, the “ABSOLUTE MONOCYTE” value [1] was 21.67 CELLS/uL, the “ABSOLUTE SEGMENTED NEUTROPHIL” value [1] was 762.33 CELLS/uL and the BASOPHIL [1] was 0%. For the same compound, the EOSINOPHIL [1] was 0%, the “ERYTHROCYTE COUNT” value [1] was 5.56 x10E6/uL and the HEMATOCRIT [1] was 34.37%. The HEMOGLOBIN [1] was 13.47 G/DL, the “LEUKOCYTE COUNT” value [1] was 10.03 x10E3/uL and the LYMPHOCYTE [1] was 91.33%. The “MEAN CORPUSCULAR HEMOGLOBIN” value [1] was 24.27 pg, the “MEAN CORPUSCULAR HEMOGLOBIN CONCENTRATION” value [1] was 39.17 G/DL and the “MEAN CORPUSCULAR VOLUME” value [1] was 61.87 fL. For the same compound, the MONOCYTE [1] was 0.33%, the NEUTROPHIL [1] was 8.33% and the “NUCLEATED RED BLOOD CELLS” value [1] was 0 /100WBC. The “PLATELET COUNT” value [1] was 1304.67 x10E3/uL, the “ALANINE AMINOTRANSFERASE” value [1] was 37 u/L and the ALBUMIN [1] was 4.23 G/DL. The “ALKALINE PHOSPHATASE” value [1] was 308 u/L, the “ASPARTATE AMINOTRANSFERASE” value [1] was 89 u/L and the “BLOOD UREA NITROGEN” value [1] was 17 mg/dL. For the same compound, the “CARBON DIOXIDE” value [1] was 29 mmol/L, the CHLORIDE [1] was 103 MEQ/L and the CHOLESTEROL [1] was 80.67 mg/dL. For the same compound, the “CREATINE PHOSPHOKINASE” value [1] was 622.67 u/L, the CREATININE [1] was 0.21 mg/dL and the GLUCOSE [1] was 160.67 mg/dL. For the same compound, the “LACTATE DEHYDROGENASE” value [1] was 288.33 u/L, the LIPASE [1] was 11.67 u/L and the PHOSPHORUS [1] was 12.93 mg/dL. For the same compound, the POTASSIUM [1] was 6.22 MEQ/L, the SODIUM [1] was 145.5 MEQ/L and the “TOTAL BILIRUBIN” value [1] was 0.17 mg/dL. For the same compound, the “TOTAL PROTEIN” value [1] was 5.97 G/DL, the “URIC ACID” value [1] was 1.77 mg/dL and the “ABSOLUTE BASOPHIL” value [2] was 0 CELLS/uL. For the same compound, the “ABSOLUTE EOSINOPHIL” value [2] was 126 CELLS/uL, the “ABSOLUTE LYMPHOCYTE” value [2] was 15175.33 CELLS/uL and the “ABSOLUTE MONOCYTE” value [2] was 93.67 CELLS/uL. For the same compound, the “ABSOLUTE SEGMENTED NEUTROPHIL” value [2] was 271.67 CELLS/uL, the BASOPHIL [2] was 0% and the EOSINOPHIL [2] was 0.67%. For the same compound, the “ERYTHROCYTE COUNT” value [2] was 5.63 x10E6/uL, the HEMATOCRIT [2] was 33.73% and the HEMOGLOBIN [2] was 13.4 G/DL. For the same compound, the “LEUKOCYTE COUNT” value [2] was 15.67 x10E3/uL, the LYMPHOCYTE [2] was 97% and the “MEAN CORPUSCULAR HEMOGLOBIN” value [2] was 23.8 pg. For the same compound, the “MEAN CORPUSCULAR HEMOGLOBIN CONCENTRATION” value [2] was 39.77 G/DL, the “MEAN CORPUSCULAR VOLUME” value [2] was 59.8 fL and the MONOCYTE [2] was 0.67%. The NEUTROPHIL [2] was 1.67%, the “NUCLEATED RED BLOOD CELLS” value [2] was 0 /100WBC and the “PLATELET COUNT” value [2] was 1219.33 x10E3/uL. For the same compound, the “ALANINE AMINOTRANSFERASE” value [2] was 39 u/L, the ALBUMIN [2] was 3.87 G/DL and the “ALKALINE PHOSPHATASE” value [2] was 312.33 u/L. The “ASPARTATE AMINOTRANSFERASE” value [2] was 118.33 u/L, the “BLOOD UREA NITROGEN” value [2] was 18.67 mg/dL and the “CARBON DIOXIDE” value [2] was 22 mmol/L. The CHLORIDE [2] was 106.67 MEQ/L, the CHOLESTEROL [2] was 56 mg/dL and the “CREATINE PHOSPHOKINASE” value [2] was 1266.33 u/L. For the same compound, the CREATININE [2] was 0.24 mg/dL, the GLUCOSE [2] was 163.67 mg/dL and the “LACTATE DEHYDROGENASE” value [2] was 328.67 u/L. The LIPASE [2] was 10 u/L, the PHOSPHORUS [2] was 11.83 mg/dL and the POTASSIUM [2] was 5.65 MEQ/L. For the same compound, the SODIUM [2] was 148.8 MEQ/L, the “TOTAL BILIRUBIN” value [2] was 0.23 mg/dL and the “TOTAL PROTEIN” value [2] was 5.53 G/DL. For the same compound, the “URIC ACID” value [2] was 1.8 mg/dL, the “ABSOLUTE BASOPHIL” value [3] was 0 CELLS/uL and the “ABSOLUTE EOSINOPHIL” value [3] was 0 CELLS/uL. For the same compound, the “ABSOLUTE LYMPHOCYTE” value [3] was 11668 CELLS/uL, the “ABSOLUTE MONOCYTE” value [3] was 117.67 CELLS/uL and the “ABSOLUTE SEGMENTED NEUTROPHIL” value [3] was 1081 CELLS/uL. The BASOPHIL [3] was 0%, the EOSINOPHIL [3] was 0% and the “ERYTHROCYTE COUNT” value [3] was 4.84 x10E6/uL. For the same compound, the HEMATOCRIT [3] was 31.5%, the HEMOGLOBIN [3] was 12.83 G/DL and the “LEUKOCYTE COUNT” value [3] was 12.87 x10E3/uL. For the same compound, the LYMPHOCYTE [3] was 90.33%, the “MEAN CORPUSCULAR HEMOGLOBIN” value [3] was 26.5 pg and the “MEAN CORPUSCULAR HEMOGLOBIN CONCENTRATION” value [3] was 40.77 G/DL. The “MEAN CORPUSCULAR VOLUME” value [3] was 65 fL, the MONOCYTE [3] was 1% and the NEUTROPHIL [3] was 8.67%. For the same compound, the “NUCLEATED RED BLOOD CELLS” value [3] was 0 /100WBC, the “PLATELET COUNT” value [3] was 1111.67 x10E3/uL and the “ALANINE AMINOTRANSFERASE” value [3] was 56 u/L. The ALBUMIN [3] was 4.23 G/DL, the “ALKALINE PHOSPHATASE” value [3] was 342.67 u/L and the “ASPARTATE AMINOTRANSFERASE” value [3] was 108 u/L. The “BLOOD UREA NITROGEN” value [3] was 13.67 mg/dL, the “CARBON DIOXIDE” value [3] was 26.33 mmol/L and the CHLORIDE [3] was 105 MEQ/L. For the same compound, the CHOLESTEROL [3] was 80.67 mg/dL, the “CREATINE PHOSPHOKINASE” value [3] was 777.33 u/L and the CREATININE [3] was 0.24 mg/dL. For the same compound, the GLUCOSE [3] was 165.67 mg/dL, the “LACTATE DEHYDROGENASE” value [3] was 493.33 u/L and the LIPASE [3] was 8.33 u/L. The PHOSPHORUS [3] was 13.3 mg/dL, the POTASSIUM [3] was 6.06 MEQ/L and the SODIUM [3] was 144.47 MEQ/L. For the same compound, the “TOTAL BILIRUBIN” value [3] was 0.17 mg/dL, the “TOTAL PROTEIN” value [3] was 5.67 G/DL and the “URIC ACID” value [3] was 1.5 mg/dL. For the same compound, the “ABSOLUTE BASOPHIL” value [4] was 0 CELLS/uL, the “ABSOLUTE EOSINOPHIL” value [4] was 175.33 CELLS/uL and the “ABSOLUTE LYMPHOCYTE” value [4] was 14127.33 CELLS/uL. For the same compound, the “ABSOLUTE MONOCYTE” value [4] was 0 CELLS/uL, the “ABSOLUTE SEGMENTED NEUTROPHIL” value [4] was 1364 CELLS/uL and the BASOPHIL [4] was 0%. For the same compound, the EOSINOPHIL [4] was 1%, the “ERYTHROCYTE COUNT” value [4] was 5.43 x10E6/uL and the HEMATOCRIT [4] was 34.73%. For the same compound, the HEMOGLOBIN [4] was 13.6 G/DL, the “LEUKOCYTE COUNT” value [4] was 15.67 x10E3/uL and the LYMPHOCYTE [4] was 90.33%. The “MEAN CORPUSCULAR HEMOGLOBIN” value [4] was 25.07 pg, the “MEAN CORPUSCULAR HEMOGLOBIN CONCENTRATION” value [4] was 39.17 G/DL and the “MEAN CORPUSCULAR VOLUME” value [4] was 63.97 fL. The MONOCYTE [4] was 0%, the NEUTROPHIL [4] was 8.67% and the “NUCLEATED RED BLOOD CELLS” value [4] was 0 /100WBC. The “PLATELET COUNT” value [4] was 1364.67 x10E3/uL, the “ALANINE AMINOTRANSFERASE” value [4] was 58.33 u/L and the ALBUMIN [4] was 4.33 G/DL. For the same compound, the “ALKALINE PHOSPHATASE” value [4] was 411.67 u/L, the “ASPARTATE AMINOTRANSFERASE” value [4] was 88.33 u/L and the “BLOOD UREA NITROGEN” value [4] was 18.33 mg/dL. The “CARBON DIOXIDE” value [4] was 27.33 mmol/L, the CHLORIDE [4] was 103 MEQ/L and the CHOLESTEROL [4] was 72 mg/dL. For the same compound, the “CREATINE PHOSPHOKINASE” value [4] was 231.67 u/L, the CREATININE [4] was 0.23 mg/dL and the GLUCOSE [4] was 179 mg/dL. The “LACTATE DEHYDROGENASE” value [4] was 197.33 u/L, the LIPASE [4] was 11 u/L and the PHOSPHORUS [4] was 14.8 mg/dL. The POTASSIUM [4] was 6.06 MEQ/L, the SODIUM [4] was 146.8 MEQ/L and the “TOTAL BILIRUBIN” value [4] was 0.2 mg/dL. The “TOTAL PROTEIN” value [4] was 6.07 G/DL and the “URIC ACID” value [4] was 2.07 mg/dL.
